Assay results taken from patent publication US20210052701A1, “Methods of Treating Vascular Leakage Using CXCL12 Peptides” (The Medical College of Wisconsin, Inc., priority 2018, published 2021).
pKd: −log10 of the molar value. Entries after “also recorded” stand apart in the source; their conditions may differ.

Assays:
HULEC-5a = test: Effects of CXCL12 and ubiquitin on thrombin-induced impairment of HULEC-5a monolayer permeability; type: cell-based, human; conditions: thrombin 50 nM, after 10 min 50 nM ligand
Protocol: FIGS. 4A-4D show effects of CXCL12 and ubiquitin on thrombin-induced impairment of HULEC-5a monolayer permeability. (A) HULEC-5a were grown to a confluent monolayer on collagen-coated permeable membranes and then exposed to different concentration of thrombin for 10 min, followed by the addition of FITC-dextran. Endothelial permeability was assessed by measuring the amount of FITC-dextran that permeated through the cell monolayer. No cells: 100% permeability. RFU: Relative fluorescence units. N=3 in quadruplicate. (B) Dose-response curves for thrombin-induced permeability, data from A. 100% permeability=permeability in the absence of HULEC-5a. Open squares: Permeability at t=55 min. Light grey squares: Permeability at t=135 min. Dark grey squares: Permeability at t=255 min. […] Endothelial permeability was assessed by measuring the amount of FITC-dextran that permeated through the cell monolayer. RFU: Relative fluorescence units. […]
In vitro vascular permeability assays—Permeability assays were obtained from Millipore (ECM642) and performed as per manufacturer's instructions. […] Fluorescein isothiocyanate (FITC)-dextran (20 μg/mL) was then added on top of the monolayer and the amount of FITC-dextran that permeated through the monolayer was quantified by measuring fluorescence in a Synergy 2 Multi-mode Microplate Reader (BioTek, Winooski, Vt.) at various time points over a 255 min time period.

CXCL12 = CXCL12 (Homo sapiens, UniProt P48061); conditions: read-out: dimerization Kd; cited from earlier work
CXCL12, sequence (P48061 22-89 limits assumed): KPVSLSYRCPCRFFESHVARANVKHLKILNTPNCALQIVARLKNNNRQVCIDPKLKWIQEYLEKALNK

hPPAEC = test: In vitro vascular permeability assay (FITC-dextran), hPPAEC monolayer, CXCR4/ACKR3 ligands without thrombin; type: cell-based, human; conditions: 50 nM ligand for 10 min, then FITC-dextran; no thrombin
Protocol: FIGS. 1A-1B show expression of CXCR4, ACKR3 and CXCR4:ACKR3 heteromers on hPPAEC and effects of CXCR4/ACKR3 ligands on hPPAEC monolayer permeability. (A) Detection of CXCR4, ACKR3 and CXCR4:ACKR3 heteromers on hPPAEC by PLA. Typical PLA images for the detection of individual receptors and CXCR4:ACKR3 heteromers. Images show merged PLA/40,6-diamidino-2-phenylindole dihydrochloride (DAPI) signals. Ctrl: Omission of one secondary antibody. (B) hPPAEC were grown to a confluent monolayer on collagen-coated permeable membranes. Cells were then exposed to vehicle or 50 nM of CXCR4/ACKR3 ligands for 10 minutes, as indicated, followed by the addition of FITC-dextran. Endothelial permeability was assessed by measuring the amount of FITC-dextran that permeated through the cell monolayer. N=3 in quadruplicate. No cells: 100% permeability, open squares. RFU: Relative fluorescence units. *: p<0.05 vs. vehicle (2-way ANOVA/Bonferroni's multiple comparison post hoc test).
Cells and cell lines—Human primary pulmonary artery endothelial cells (hPPAEC) (ATCC, PCS-100-022) and the human lung microvascular endothelial cell line HULEC-5a (ATCC, CRL-3244) were cultured in vascular cell basal medium (ATCC, PCS-100-030) with endothelial cell growth kit-VEGF (ATCC, PCS-100-041). The HTLA cell line, a HEK293 cell line stably expressing a tTA-dependent luciferase reporter and a β-arrestin2-TEV fusion gene, was generously provided by the laboratory of Dr. Bryan Roth and maintained in high glucose Dulbecco's Modified Eagle's Medium supplemented with 10% (vol/vol) FBS, 1× non-essential amino acids, 100 U/mL penicillin, 100 μg/mL streptomycin, 50 μg/mL hygromycin B, and 2 μg/mL puromycin. All cells were cultured at 37° C., 5% CO2 in a humidified atmosphere.
In vitro vascular permeability assays—Permeability assays were obtained from Millipore (ECM642) and performed as per manufacturer's instructions. In brief, 96-well collagen-coated permeability assay plates were pre-hydrated for 15 min, 5×10^5 cells were seeded on each well and grown to a confluent monolayer for 48 hours. Fluorescein isothiocyanate (FITC)-dextran (20 μg/mL) was then added on top of the monolayer and the amount of FITC-dextran that permeated through the monolayer was quantified by measuring fluorescence in a Synergy 2 Multi-mode Microplate Reader (BioTek, Winooski, Vt.) at various time points over a 255 min time period.

CXCR4 = molecular target: T1, CXCR4 (Homo sapiens, UniProt P61073); test: Presto-Tango β-arrestin 2 recruitment assay for CXCR4; type: cell-based
T1 construct: host or cells: HTLA cells (HEK293 line stably expressing a tTA-dependent luciferase reporter and a β-arrestin2-TEV fusion gene)
T1 sequence (P61073 whole entry, the tested form may be a part): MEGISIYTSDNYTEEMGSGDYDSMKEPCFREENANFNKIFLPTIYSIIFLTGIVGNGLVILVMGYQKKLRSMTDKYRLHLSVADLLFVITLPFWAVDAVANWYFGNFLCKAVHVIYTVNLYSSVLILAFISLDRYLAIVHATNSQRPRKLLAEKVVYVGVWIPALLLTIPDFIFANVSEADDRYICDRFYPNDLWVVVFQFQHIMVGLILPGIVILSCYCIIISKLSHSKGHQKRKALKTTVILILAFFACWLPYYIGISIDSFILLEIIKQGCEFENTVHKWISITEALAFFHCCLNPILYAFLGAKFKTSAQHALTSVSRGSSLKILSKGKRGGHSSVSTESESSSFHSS
Protocol: FIGS. 6A-6F show Presto-Tango β-arrestin 2 recruitment assays for CXCR4 (A-C) and ACKR3 (D-F). RLU %: % of the luminescence signal for 1 μM CXCL12α. N=9 for CXCL12a and n=3 for all other proteins.
Presto-Tango β-arrestin 2 recruitment assay—The PRESTO-Tango (parallel receptorome expression and screening via transcriptional out-put, with transcriptional activation following arrestin translocation) assay was performed as recently described. The Tango plasmids were a gift from Dr. Bryan Roth (all from Addgene). HTLA cells (2.5×10^5/well) were seeded in a 6-well plate and transfected with 1.5 μg of the Tango plasmids using Lipofectamine 3000 (ThermoScientific). The following day, transfected HTLA cells (1×10^5 cells/well) were plated onto Poly-L-Lysine pre-coated 96-well micro-plates and allowed to attach to the plate surface for at least 4 hours prior to treatment. Proteins used for treatment were prepared in twice the final concentration in culture media, added at a 1:1 vol/vol ratio and incubated overnight at 37° C., 5% CO2 in a humidified environment. The following morning, media was removed from cell culture plates and replaced with a 100 μL 1:5 mixture of Bright-Glo (Promega) and 1×HBSS, 20 mM HEPES solution. Plates were then incubated at room temperature before measuring luminescence on a Biotek Synergy II plate reader.

potency (EC50) to recruit β-arrestin 2 to CXCR4, compared with CXCL12α (CXCR4): no statistically significant differences
Substance: CXCL12: Wild-type CXCL12 (SEQ ID NO:1), cognate agonist of CXCR4 and ACKR3
effect on thrombin-mediated impairment of HULEC-5a barrier function when added after thrombin (HULEC-5a): significantly reduced thrombin-mediated impairment of endothelial cell barrier function; also recorded: less efficacious in HULEC-5a cells than in hPPAEC
pKd (CXCL12): 3.85
effect on hPPAEC monolayer permeability (hPPAEC): enhanced hPPAEC barrier function
